Test results: the NIST ThermoML archive (doi:10.1016/j.jct.2012.12.001)
± gives the expanded uncertainty stated by the source.

Test: heat capacity at constant pressure per volume; xn = mol fraction of the nth substance listed
Conditions: 101 kPa, Liquid, DSC, x2 = 0.713

With `CCCCCCCCCCCCCCCCCC` [octadecane] + N#Cc1ccccc1 the heat capacity (303.58 K) was 1893500 ± 20000 J/K/m3, the heat capacity (303.61 K) was 1895600 ± 20000 J/K/m3 and the heat capacity (303.64 K) was 1894200 ± 20000 J/K/m3. For the same compound, the heat capacity (303.66 K) was 1894100 ± 20000 J/K/m3, the heat capacity (303.69 K) was 1893500 ± 20000 J/K/m3 and the heat capacity (303.72 K) was 1893700 ± 20000 J/K/m3. The heat capacity (303.75 K) was 1897900 ± 20000 J/K/m3, the heat capacity (303.78 K) was 1897000 ± 20000 J/K/m3 and the heat capacity (303.8 K) was 1893000 ± 20000 J/K/m3. For the same compound, the heat capacity (303.83 K) was 1895200 ± 20000 J/K/m3, the heat capacity (303.86 K) was 1892600 ± 20000 J/K/m3 and the heat capacity (303.89 K) was 1900300 ± 20000 J/K/m3. It also gave a heat capacity (303.92 K) of 1898300 ± 20000 J/K/m3, a heat capacity (303.94 K) of 1898400 ± 20000 J/K/m3 and a heat capacity (303.97 K) of 1899900 ± 20000 J/K/m3. It also gave a heat capacity (304 K) of 1891800 ± 20000 J/K/m3, a heat capacity (304.03 K) of 1897900 ± 20000 J/K/m3 and a heat capacity (304.06 K) of 1900800 ± 20000 J/K/m3. For the same compound, the heat capacity (304.09 K) was 1899300 ± 20000 J/K/m3, the heat capacity (304.11 K) was 1897800 ± 20000 J/K/m3 and the heat capacity (304.14 K) was 1899100 ± 20000 J/K/m3. The heat capacity (304.17 K) was 1900600 ± 20000 J/K/m3, the heat capacity (304.2 K) was 1897100 ± 20000 J/K/m3 and the heat capacity (304.23 K) was 1902700 ± 20000 J/K/m3. The heat capacity (304.25 K) was 1900600 ± 20000 J/K/m3, the heat capacity (304.28 K) was 1893900 ± 20000 J/K/m3 and the heat capacity (304.31 K) was 1900100 ± 20000 J/K/m3. For the same compound, the heat capacity (304.34 K) was 1897300 ± 20000 J/K/m3, the heat capacity (304.37 K) was 1899500 ± 20000 J/K/m3 and the heat capacity (304.39 K) was 1898900 ± 20000 J/K/m3. It also gave a heat capacity (304.42 K) of 1904200 ± 20000 J/K/m3, a heat capacity (304.45 K) of 1900400 ± 20000 J/K/m3 and a heat capacity (304.48 K) of 1895000 ± 20000 J/K/m3. The heat capacity (304.51 K) was 1898500 ± 20000 J/K/m3, the heat capacity (304.54 K) was 1903400 ± 20000 J/K/m3 and the heat capacity (304.56 K) was 1902200 ± 20000 J/K/m3. It also gave a heat capacity (304.59 K) of 1903900 ± 20000 J/K/m3, a heat capacity (304.62 K) of 1901200 ± 20000 J/K/m3 and a heat capacity (304.65 K) of 1901800 ± 20000 J/K/m3. For the same compound, the heat capacity (304.68 K) was 1903500 ± 20000 J/K/m3, the heat capacity (304.7 K) was 1904200 ± 20000 J/K/m3 and the heat capacity (304.73 K) was 1899600 ± 20000 J/K/m3. The heat capacity (304.76 K) was 1899700 ± 20000 J/K/m3, the heat capacity (304.79 K) was 1900400 ± 20000 J/K/m3 and the heat capacity (304.82 K) was 1904800 ± 20000 J/K/m3. For the same compound, the heat capacity (304.84 K) was 1903700 ± 20000 J/K/m3, the heat capacity (304.87 K) was 1904600 ± 20000 J/K/m3 and the heat capacity (304.9 K) was 1904600 ± 20000 J/K/m3. The heat capacity (304.93 K) was 1903200 ± 20000 J/K/m3, the heat capacity (304.96 K) was 1902600 ± 20000 J/K/m3 and the heat capacity (304.98 K) was 1900600 ± 20000 J/K/m3. The heat capacity (305.01 K) was 1902200 ± 20000 J/K/m3, the heat capacity (305.04 K) was 1902200 ± 20000 J/K/m3 and the heat capacity (305.07 K) was 1903000 ± 20000 J/K/m3. The heat capacity (305.1 K) was 1907100 ± 20000 J/K/m3, the heat capacity (305.12 K) was 1903100 ± 20000 J/K/m3 and the heat capacity (305.15 K) was 1908100 ± 20000 J/K/m3. For the same compound, the heat capacity (305.18 K) was 1904700 ± 20000 J/K/m3, the heat capacity (305.21 K) was 1904200 ± 20000 J/K/m3 and the heat capacity (305.24 K) was 1905700 ± 20000 J/K/m3. It also gave a heat capacity (305.27 K) of 1907500 ± 20000 J/K/m3, a heat capacity (305.29 K) of 1908300 ± 20000 J/K/m3 and a heat capacity (305.32 K) of 1908600 ± 20000 J/K/m3. The heat capacity (305.35 K) was 1908400 ± 20000 J/K/m3, the heat capacity (305.38 K) was 1906900 ± 20000 J/K/m3 and the heat capacity (305.41 K) was 1907700 ± 20000 J/K/m3. It also gave a heat capacity (305.44 K) of 1908100 ± 20000 J/K/m3, a heat capacity (305.46 K) of 1909400 ± 20000 J/K/m3 and a heat capacity (305.49 K) of 1908500 ± 20000 J/K/m3. For the same compound, the heat capacity (305.52 K) was 1909000 ± 20000 J/K/m3, the heat capacity (305.55 K) was 1908400 ± 20000 J/K/m3 and the heat capacity (305.57 K) was 1909200 ± 20000 J/K/m3. It also gave a heat capacity (305.6 K) of 1906500 ± 20000 J/K/m3, a heat capacity (305.63 K) of 1908200 ± 20000 J/K/m3 and a heat capacity (305.66 K) of 1908500 ± 20000 J/K/m3. For the same compound, the heat capacity (305.69 K) was 1909100 ± 20000 J/K/m3, the heat capacity (305.72 K) was 1909500 ± 20000 J/K/m3 and the heat capacity (305.74 K) was 1911100 ± 20000 J/K/m3. For the same compound, the heat capacity (305.77 K) was 1910000 ± 20000 J/K/m3, the heat capacity (305.8 K) was 1907500 ± 20000 J/K/m3 and the heat capacity (305.83 K) was 1908700 ± 20000 J/K/m3. For the same compound, the heat capacity (305.86 K) was 1914100 ± 20000 J/K/m3, the heat capacity (305.88 K) was 1911500 ± 20000 J/K/m3 and the heat capacity (305.91 K) was 1910100 ± 20000 J/K/m3. The heat capacity (305.94 K) was 1909200 ± 20000 J/K/m3, the heat capacity (305.97 K) was 1909700 ± 20000 J/K/m3 and the heat capacity (306 K) was 1906900 ± 20000 J/K/m3. It also gave a heat capacity (306.02 K) of 1909600 ± 20000 J/K/m3, a heat capacity (306.05 K) of 1913100 ± 20000 J/K/m3 and a heat capacity (306.08 K) of 1913500 ± 20000 J/K/m3. For the same compound, the heat capacity (306.11 K) was 1917400 ± 20000 J/K/m3, the heat capacity (306.14 K) was 1917300 ± 20000 J/K/m3 and the heat capacity (306.17 K) was 1913000 ± 20000 J/K/m3. The heat capacity (306.19 K) was 1914700 ± 20000 J/K/m3, the heat capacity (306.22 K) was 1914300 ± 20000 J/K/m3 and the heat capacity (306.25 K) was 1915600 ± 20000 J/K/m3. The heat capacity (306.28 K) was 1918100 ± 20000 J/K/m3, the heat capacity (306.31 K) was 1915700 ± 20000 J/K/m3 and the heat capacity (306.33 K) was 1916100 ± 20000 J/K/m3. It also gave a heat capacity (306.36 K) of 1913300 ± 20000 J/K/m3, a heat capacity (306.39 K) of 1910700 ± 20000 J/K/m3 and a heat capacity (306.42 K) of 1914500 ± 20000 J/K/m3. The heat capacity (306.45 K) was 1911200 ± 20000 J/K/m3, the heat capacity (306.48 K) was 1914800 ± 20000 J/K/m3 and the heat capacity (306.5 K) was 1918100 ± 20000 J/K/m3. The heat capacity (306.53 K) was 1921200 ± 20000 J/K/m3, the heat capacity (306.56 K) was 1920200 ± 20000 J/K/m3 and the heat capacity (306.59 K) was 1916400 ± 20000 J/K/m3. The heat capacity (306.62 K) was 1922000 ± 20000 J/K/m3, the heat capacity (306.64 K) was 1923600 ± 20000 J/K/m3 and the heat capacity (306.67 K) was 1922600 ± 20000 J/K/m3. For the same compound, the heat capacity (306.7 K) was 1921800 ± 20000 J/K/m3, the heat capacity (306.73 K) was 1922000 ± 20000 J/K/m3 and the heat capacity (306.76 K) was 1921100 ± 20000 J/K/m3. It also gave a heat capacity (306.78 K) of 1915500 ± 20000 J/K/m3, a heat capacity (306.81 K) of 1915900 ± 20000 J/K/m3 and a heat capacity (306.84 K) of 1920400 ± 20000 J/K/m3. For the same compound, the heat capacity (306.87 K) was 1916900 ± 20000 J/K/m3, the heat capacity (306.9 K) was 1923600 ± 20000 J/K/m3 and the heat capacity (306.93 K) was 1927300 ± 20000 J/K/m3. It also gave a heat capacity (306.95 K) of 1929700 ± 20000 J/K/m3, a heat capacity (306.98 K) of 1927500 ± 20000 J/K/m3 and a heat capacity (307.01 K) of 1924100 ± 20000 J/K/m3. The heat capacity (307.04 K) was 1928000 ± 20000 J/K/m3, the heat capacity (307.06 K) was 1932100 ± 20000 J/K/m3 and the heat capacity (307.09 K) was 1924600 ± 20000 J/K/m3. For the same compound, the heat capacity (307.12 K) was 1927400 ± 20000 J/K/m3, the heat capacity (307.15 K) was 1929100 ± 20000 J/K/m3 and the heat capacity (307.18 K) was 1928200 ± 20000 J/K/m3. The heat capacity (307.21 K) was 1926400 ± 20000 J/K/m3, the heat capacity (307.23 K) was 1925500 ± 20000 J/K/m3 and the heat capacity (307.26 K) was 1931000 ± 20000 J/K/m3. The heat capacity (307.29 K) was 1928800 ± 20000 J/K/m3, the heat capacity (307.32 K) was 1935200 ± 20000 J/K/m3 and the heat capacity (307.35 K) was 1931700 ± 20000 J/K/m3. The heat capacity (307.37 K) was 1930400 ± 20000 J/K/m3 and the heat capacity (307.4 K) was 1932600 ± 20000 J/K/m3.
